In article PMC4917657, “SP6616 as a new Kv2.1 channel inhibitor efficiently promotes β-cell survival involving both PKC/Erk1/2 and CaM/PI3K/Akt signaling pathways” (Cell Death & Disease, 2016):

Test system: T1, Kv2.2
T1 construct: gene KCNB2
Assay: channel inhibition in CHO cells transfected with pcDNA3.1a-Kv2.[…] (Supplementary Figure […])
Assay type: cell-based

## CCOC(=O)C1=C(C)N=c2sc(=Cc3ccc(O)c(OC)c3)c(=O)n2C1c1ccc(OC)c(OCC)c1 (stereo not shown) [SP6616, ethyl 5-(3-ethoxy-4-methoxyphenyl)-2-(4-hydroxy-3-methoxybenzylidene)-7-methyl-3-oxo-2,3-dihydro-5H-[1,3]thiazolo[3,2–a]pyrimidine-6-carboxylate]
  IC50: 13.5 µM
